Our source for the Ki values is US20080051387A1, “TETRAHYDROPYRIDO[3,4-D]PYRIMIDINES AND RELATED ANALOGUES” (priority 2006, published 2008).

The target of this experiment is T1, chimeric human H3 receptor (Homo sapiens, UniProt Q9Y5N1).
T1 construct: rat Galpha-i2 (Gnai2, rat); made in house; host or cells: Sf9 insect cells (baculovirus); P2 membranes
As to the kind of experiment: Chimeric human H3 receptor GTP binding assay (agonist-stimulated GTP-gamma35S binding, Example 7). In kind it is biochemical. The source says:
This Example illustrates a representative assay for evaluating agonist-stimulated GTP-gamma^35S binding (“GTP binding”) activity. […] This agonist-stimulated GTP binding activity can also be used to detect partial agonism mediated by antagonist compounds. A compound analyzed in this assay is referred to herein as a “test compound.”
Four independent baculoviral stocks (one directing the expression of the chimeric human H3 receptor and three directing the expression of each of the three subunits of a heterotrimeric G-protein) are used to infect a culture of Sƒ9 cells as described above. P2 membranes are prepared as described above, and agonist-stimulated GTP binding on the P2 membranes is assessed using histamine (Sigma Chemical Co., St. Louis, Mo.) as agonist in order to ascertain that the receptor/G-protein-alpha-beta-gamma combination(s) yield a functional response as measured by GTP binding. P2 membranes are resuspended by Dounce homogenization (tight pestle) in GTP binding assay buffer (50 mM Tris pH 7.4, 120 mM NaCl, 5 mM MgCl2, 2 mM EGTA, 1 mg/ml BSA, 0.2 mg/ml bacitracin, 0.02 mg/ml aprotinin, 0.01 mg/ml saponin, 10 μM GDP) and added to assay tubes at a concentration of 35 μg protein/reaction tube. After adding increasing doses of histamine at concentrations ranging from 10-12 M to 10^−5 M, reactions are initiated by the addition of 125 pM GTP-gamma^35S (PERKIN ELMER; Boston, Mass.) with a final assay volume of 0.20 ml. In competition experiments, non-radiolabeled test compounds are added to separate reactions at concentrations ranging from 10^−10 M to 10^−6 M along with 1 μM histamine to yield a final volume of 0.20 ml.
Neutral antagonists are antagonists that are substantially free of inherent agonist activity, and include those test compounds that reduce the histamine-stimulated GTP binding activity towards, but not below, baseline levels. In contrast, in the absence of added histamine, inverse agonists reduce the GTP binding activity of the receptor-containing membranes below baseline.
After a 60-min incubation at room temperature, reactions are terminated by vacuum filtration over WHATMAN GF/C filters (pre-soaked in wash buffer, 0.1% BSA) followed by washing with ice-cold wash buffer (50 mM Tris pH 7.4, 120 mM NaCl). The amount of receptor-bound (and thereby membrane-bound) GTP-gamma^35S is determined by measuring the filter-bound radioactivity, preferably by liquid scintillation spectrometry of the washed filters. Non-specific binding is determined in parallel assays including 10 μM unlabeled GTP-gammaS and typically represents less than 5 percent of total binding. Data is expressed as percent above basal (baseline). The results of GTP binding experiments are analyzed using SIGMAPLOT software (SPSS Inc., Chicago, Ill.). IC50 values are calculated by non-linear regression analysis of dose-response curves using Kaleidograph (Synergy Software, Reading, Pa.).
Alternatively the data is analyzed as follows. First, the average bound radioactivity from negative control wells (no agonist) is subtracted from the bound radioactivity detected for each of the other experimental wells. Second, average bound radioactivity is calculated for the positive control wells (agonist wells). Then, percent inhibition for each compound tested is calculated using the equation: [formula]
Calculated IC50 values are converted to Ki values by the Cheng-Prusoff correction (Cheng and Prusoff (1973) Biochem. Pharmacol. 22(23):3099-3108). Accordingly, the following equation: Ki=IC50/(1+[L]/EC50) is used, where [L] is the histamine concentration in the GTP binding assay, and EC50 is the concentration of histamine producing a 50% response, as determined by a dose-response analysis using concentrations of histamine ranging from 10^−10 M to 10^−6 M. […]
In general terms: GTPγS is a poorly hydrolysed GTP analogue; its binding reports G protein activation.

Where [1] appears, read: P2 membranes of Sf9 cells, 1 μM histamine as agonist, Ki from IC50 by Cheng-Prusoff, read-out: Ki.
The mark [2] stands for this setting: assay of Example 7, symbol "*" in column headed Ki, read-out: Ki.

Like-named read-outs stand apart in the source and are kept apart here.

T1 sequence (Q9Y5N1 with tags, fused parts or gaps): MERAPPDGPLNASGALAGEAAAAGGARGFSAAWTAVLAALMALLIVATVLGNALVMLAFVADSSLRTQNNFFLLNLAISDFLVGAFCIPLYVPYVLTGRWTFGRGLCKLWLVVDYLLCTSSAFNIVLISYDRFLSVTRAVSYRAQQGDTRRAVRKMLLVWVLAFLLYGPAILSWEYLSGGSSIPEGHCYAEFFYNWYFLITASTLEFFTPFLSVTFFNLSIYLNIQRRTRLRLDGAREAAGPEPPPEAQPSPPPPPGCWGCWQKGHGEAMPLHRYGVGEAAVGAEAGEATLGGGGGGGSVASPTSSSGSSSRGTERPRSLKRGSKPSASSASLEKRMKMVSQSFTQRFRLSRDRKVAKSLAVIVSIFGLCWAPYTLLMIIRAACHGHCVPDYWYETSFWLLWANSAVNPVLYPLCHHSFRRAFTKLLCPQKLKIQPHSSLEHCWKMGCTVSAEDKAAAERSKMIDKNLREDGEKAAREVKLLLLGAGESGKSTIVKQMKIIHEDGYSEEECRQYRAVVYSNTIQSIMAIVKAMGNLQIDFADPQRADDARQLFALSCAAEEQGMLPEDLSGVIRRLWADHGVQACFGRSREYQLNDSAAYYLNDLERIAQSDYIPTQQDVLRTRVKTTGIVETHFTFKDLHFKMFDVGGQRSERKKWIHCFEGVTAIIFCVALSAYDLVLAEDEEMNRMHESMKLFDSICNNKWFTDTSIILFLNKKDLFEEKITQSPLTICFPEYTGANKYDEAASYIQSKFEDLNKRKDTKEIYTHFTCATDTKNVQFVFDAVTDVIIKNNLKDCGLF

As usually defined, the Ki is a measure of affinity in units of concentration, obtained from inhibition or displacement. On to `CC(=O)c1ccc(N2CCc3nc(N4CCN(C5CCC5)CC4)ncc3C2)nc1` [Compound 610, 1-{6-[2-(4-cyclobutylpiperazin-1-yl)-7,8-dihydropyrido[4,3-d]pyrimidin-6(5H)-yl]pyridin-3-yl}ethanone], for which the inhibitory constant (Ki) under setting [1] was under 1000 nM. On the same count and under the same terms, for `c1nc2c(c(N3CCN(C4CCC4)CC3)n1)CCNCC2` [Compound 144, 4-(4-cyclobutylpiperazin-1-yl)-6,7,8,9-tetrahydro-5H-pyrimido[4,5-d]azepine] the value was under 1000 nM. Turning to `CC(=O)c1ccc(N2CCc3ncnc(N4CCN(C5CCC5)CC4)c3CC2)cc1` [Compound 7, 1-{4-[4-(4-Cyclobutyl-piperazin-1-yl)-5,6,8,9-tetrahydro-pyrimido[4,5-d]azepin-7-yl]-phenyl}-ethanone], the inhibition constant Ki (P2 membranes of Sf9 cells, 1 μM histamine as agonist, read-out: Ki in the assay of Example 7) is under 1000 nM. Regarding `FC(F)(F)CCN1CCc2cnc(N3CCN(C4CCC4)CC3)nc2CC1` [Compound 595, 2-(4-cyclobutylpiperazin-1-yl)-7-(3,3,3-trifluoropropyl)-6,7,8,9-tetrahydro-5H-pyrimido[4,5-d]azepine], the Ki under setting [2] was under 1000 nM. As for `c1nc(N2CCN(C3CCC3)CC2)nc2c1CCN(C1CCC1)CC2` [Compound 590, 7-cyclobutyl-2-(4-cyclobutylpiperazin-1-yl)-6,7,8,9-tetrahydro-5H-pyrimido[4,5-d]azepine], under setting [2], the Ki was under 1000 nM. Turning to `CC(C)(C)N1CCN(c2ncnc3c2CCN(Cc2ccccc2)C3)CC1` [Compound 13, 7-benzyl-4-(4-tert-butylpiperazin-1-yl)-5,6,7,8-tetrahydropyrido[3,4-d]pyrimidine], under setting [1], the Ki is under 1000 nM. Same read-out and setting: for `CNC(=O)c1ccc(N2CCc3nc(N4CCN(C5CCC5)CC4)ncc3C2)nc1` [Compound 648, 6-[2-(4-cyclobutylpiperazin-1-yl)-7,8-dihydropyrido[4,3-d]pyrimidin-6(5H)-yl]-N-methylnicotinamide] the value was under 1000 nM.
